tested on: human thrombocytes (PAF-induced aggregation); experiment: inhibition of PAF-induced aggregation of human thrombocytes in vitro; format: cell-based; settings: Homo sapiens, unit inferred; read-out: IC50
Procedure: In order to determine the PAF-antagonistic effect of substances the PAF-induced aggregation of human thrombocytes in vitro is used. To obtain thrombocyte-rich plasma (TRP), blood is taken from an uncongested vein using a plastic syringe containing 3.8% sodium citrate solution. The ratio of sodium citrate solution to blood is 1:9. After careful mixing, the citrated blood is centrifuged for 20 minutes (150×g, 1200 rpm). The thrombocyte aggregation is measured using the method developed by Born and Cross (G. V. R. Born and M. J. Cross, J. Physiol. 168, 178 (1963)), PAF being added to the TRP with constant stirring to initiate aggregation.
The test substance is added 2 to 3 minutes before the aggregation is induced in a volume of 10 μl. The solvent used is either distilled water, ethanol and/or dimethylsulfoxide. Control mixtures are given corresponding volumes of these solvents. After the initial absorption has been recorded (2 to 3 minutes) aggregation is induced with PAF (5×10^-8 M).
To assess the effects of substances, the maximum of the first aggregation wave is used. The maximum absorption rate induced by PAF (=maximum aggregation×100%) is tested simultaneously in a parallel mixture (=control mixture in one of the channels of the 2-channel aggregometer) with each test mixture (second channel) and used as the 100% value.
The aggregation value achieved under the influence of the test substance is given as 100%.
Each test substance is investigated at concentrations of 10^-3 to 10^-8 M with a random test scope of n=4 for any inhibiting effect on the PAF-induced thrombocyte aggregation. Then a concentration-activity curve is drawn up using 3 concentrations and the IC50 is determined (concentration at 50% inhibition of aggregation).

Row | Structure (SMILES) | IC50 [nM]
1 | CCN(CC)C(=O)CCc1cc2c(s1)-n1c(C)nnc1CN=C2c1ccccc1Cl [Example 5, 2-[4-(2-Chlorophenyl)-9-methyl-6H-thieno[3,2-f][1,2,4]-triazolo[4,3-a][1,4]diazepin-2-yl]-ethane-1-carboxylic acid diethylamide] | 700
2 | Cc1nnc2n1-c1sc(CCC(=O)N3CCOCC3)cc1C(c1ccccc1Cl)=NC2 [Example 1, 2-[4-(2-Chlorophenyl)-9-methyl-6H-thieno[3,2-f][1,2,4]-triazolo[4,3-a][1,4]diazepin-2-yl]-ethane-1-carboxylic acid morpholide] | 170

same assay, conditions: Table B; PAF 5×10^-8 M; human thrombocyte-rich plasma; read-out: PAF-Antag. IC50

Row | Structure (SMILES) | IC50 [nM]
3 | Cc1nnc2n1-c1sc(CCC(=O)N3CCOCC3)cc1C(c1ccccc1)=NC2 [Example 22, 2-[4-Phenyl-9-methyl-6H-thieno[3,2-f][1,2,4]triazolo-[4,3-a][1,4]diazepin-2-yl]-ethane-1-carboxylic acid morpholide] | 540
4 | CCN(CC)C(=O)CCc1cc2c(s1)-n1c(C)nnc1CN=C2c1ccccc1Cl [Example 5, 2-[4-(2-Chlorophenyl)-9-methyl-6H-thieno[3,2-f][1,2,4]-triazolo[4,3-a][1,4]diazepin-2-yl]-ethane-1-carboxylic acid diethylamide] | 720
5 | Cc1nnc2n1-c1sc(CCC(=O)N3CCN(C)CC3)cc1C(c1ccccc1Cl)=NC2 [Example 17, 2-[4-(2-Chlorophenyl)-9-methyl-6H-thieno[3,2-f][1,2,4]-triazolo[4,3-a][1,4]diazepin-2-yl]-ethane-1-carboxylic acid N'-methyl-piperazide] | 900
6 | Cc1nnc2n1-c1sc(CCCC(=O)N3CCOCC3)cc1C(c1ccccc1Cl)=NC2 [Example 7, 3-[4-(2-Chlorophenyl)-9-methyl-6H-thieno[3,2-f][1,2,4]-triazolo-[4,3-a][1,4]-diazepin-2-yl]-propane-1-carboxylic acid morpholide] | 850
7 | Cc1nnc2n1-c1sc(CCC(=O)N3CCCC3)cc1C(c1ccccc1Cl)=NC2 [Example 15, 2-[4-(2-Chlorophenyl)-9-methyl-6H-thieno[3,2-f][1,2,4]-triazolo[4,3-a][1,4]diazepin-2-yl]-ethane-1-carboxylic acid pyrrolidide] | 380
8 | Cc1nnc2n1-c1sc(CCC(=O)N(C)C)cc1C(c1ccccc1Cl)=NC2 [Example 14, 2-[4-(2-Chlorophenyl)-9-methyl-6H-thieno[3,2-f][1,2,4]-triazolo[4,3-a][1,4]diazepin-2-yl]-ethane-1-carboxylic acid dimethylamide] | 2200
9 | CCc1cc2c(s1)-n1c(C)nnc1CN=C2c1ccccc1Cl [Etizolam, reference compound] | 500
10 | O=C(CCc1cc2c(s1)-n1c(Br)nnc1CN=C2c1ccccc1Cl)N1CCOCC1 [Example 9] | 470
11 | Cc1nnc2n1-c1sc(CCC(=O)NC(C)C)cc1C(c1ccccc1Cl)=NC2 [Example 13, 2-[4-(2-Chlorophenyl)-9-methyl-6H-thieno[3,2-f][1,2,4]-triazolo[4,3-a][1,4]diazepin-2-yl]-ethane-1-carboxylic acid isopropylamide] | 1540
12 | O=C(CCc1cc2c(s1)-n1c(nnc1C1CC1)CN=C2c1ccccc1Cl)N1CCOCC1 [Example 2] | 330
13 | O=C(CCc1cc2c(s1)-n1cnnc1CN=C2c1ccccc1Cl)N1CCOCC1 [Example 19, 2-[4-(2-chlorophenyl)-6H-thieno[3,2-f][1,2,4]-triazolo[4,3-a][1,4]-diazepin-2-yl]-ethane-1-carboxylic acid morpholide] | 8200
14 | CNC(=O)CCc1cc2c(s1)-n1c(C)nnc1CN=C2c1ccccc1Cl [Example 12, 2-[4-(2-Chlorophenyl)-9-methyl-6H-thieno[3,2-f][1,2,4]-triazolo[4,3-a][1,4]diazepin-2-yl]-ethane-1-carboxylic acid methylamide] | 350
15 | Cc1nnc2n1-c1sc(CCC(=O)NCCO)cc1C(c1ccccc1Cl)=NC2 [Example 23] | 750
16 | Cc1nnc2n1-c1sc(C(=O)N3CCOCC3)cc1C(c1ccccc1Cl)=NC2 [Example 3, [4-(2-Chlorophenyl)-9-methyl-6H-thieno[3,2-f][1,2,4]triazolo-[4,3-a][1,4]diazepin-2-yl]-carboxylic acid morpholide] | 710
17 | Cc1nnc2n1-c1ccc(Cl)cc1C(c1ccccc1Cl)=NC2 [Triazolam, reference compound] | 1400
18 | CCCOc1nnc2n1-c1sc(CCC(=O)N3CCOCC3)cc1C(c1ccccc1Cl)=NC2 [Example 26] | 8100
19 | CCN(CC)C(=O)CCc1cc2c(s1)-n1c(nnc1C1CC1)CN=C2c1ccccc1Cl [Example 18, 2-[4-(2-Chlorophenyl)-9-cyclopropyl-6H-thieno[3,2-f][1,2,4]triazolo[4,3-a][1,4]diazepin-2-yl]-ethane-1-carboxylic acid diethylamide] | 800
20 | COc1nnc2n1-c1sc(CCC(=O)N3CCOCC3)cc1C(c1ccccc1Cl)=NC2 [Example 10, 2-[4(2-Chlorophenyl)-9-methoxy-6H-thieno[3,2-f][1,2,4]-triazolo-[4,3-a][1,4]-diazepin-2-yl]-ethane-1-carboxylic acid morpholide] | 200
21 | Cc1nnc2n1-c1sc(CCC(=O)N3CCOCC3)cc1C(c1ccccc1Cl)=NC2 [Example 1, 2-[4-(2-Chlorophenyl)-9-methyl-6H-thieno[3,2-f][1,2,4]-triazolo[4,3-a][1,4]diazepin-2-yl]-ethane-1-carboxylic acid morpholide] | 170
22 | O=C(CCc1cc2c(s1)-n1c(CCl)nnc1CN=C2c1ccccc1Cl)N1CCOCC1 [Example 24] | 1400
23 | Cc1nnc2n1-c1sc(Br)cc1C(c1ccccc1Cl)=NC2 [Brotizolam, reference compound] | 500
24 | Cc1nnc2n1-c1sc(CCC(=O)N3CCCCC3)cc1C(c1ccccc1Cl)=NC2 [Example 16, 2-[4-(2-Chlorophenyl)-9-methyl-6H-thieno[3,2-f][1,2,4]-triazolo[4,3-a][1,4]diazepin-2-yl]-ethane-1-carboxylic acid piperidide] | 1330
25 | Cc1nnc2n1-c1sc(CCCCC(=O)N3CCOCC3)cc1C(c1ccccc1Cl)=NC2 [Example 8] | 870
26 | Cc1nnc2n1-c1sc(CC(=O)N3CCOCC3)cc1C(c1ccccc1Cl)=NC2 [Example 6, [4-(2-Chlorophenyl)-9-methyl-6H-thieno[3,2-f][1,2,4]triazolo-[4,3-a][1,4]-diazepin-2-yl]-methane carboxylic acid morpholide] | 1300
27 | Cc1nnc2n1-c1sc(C(N)=O)cc1C(c1ccccc1Cl)=NC2 [Example 4, [4-(2-Chlorophenyl)-9-methyl-6H-thieno[3,2-f][1,2,4]triazolo-[4,3-a][1,4]diazepin-2-yl]-carboxylic acid amide] | 8300
28 | Cc1nnc2n1-c1sc(CC(N)=O)cc1C(c1ccccc1Cl)=NC2 [Example 20] | 5300
29 | Cc1nnc2n1-c1sc(CCC(=O)N(CCO)CCO)cc1C(c1ccccc1Cl)=NC2 [Example 21] | 2900

Source: patent publication US5155103A, “Methods of using new thieno-triazole-1,4-diazepino-2-carboxylic acid amides” (Boehringer Ingelheim GmbH, priority 1985, dated 1992)
